Measurements reported in patent publication US20140249095A1, “Method for Inhibiting Spinocerebellar Ataxia” (National Normal University, priority 2013, published 2014).
pIC50: −log10 of the molar value.

Key:
[1] = system: ATXN3/Q75 aggregation in 293 ATXN3/Q75-GFP cells; assay: ATXN3/Q75 aggregation assay on 293 cell model; format: cell-based, human; settings: for ATXN3/Q75 aggregation as compared to untreated cells: 293 ATXN3/Q75-GFP cells, doxycycline and oxaliplatin 6 days; for IC50 cytotoxicity/effective dose ratio: effective dose = reduced the ATXN3/Q75 aggregation to 85% or lower
Procedure: (§1) The cloned pcDNA5/FRT/TO-ATXN3/Q14 and Q75 plasmids were used to generate the isogenic ATXN3/Q14˜75 cell lines by targeting insertion into Flp-In™-293 cells. These cell lines were grown in medium containing 5 μg/mL blasticidin and 100 μg/mL hygromycin (InvivoGen). In addition, human SH-SYSY-derived Flp-In host cell line was constructed as described, and the SH-SYSY host cells were used to generate isogenic ATXN3/Q14˜75 lines and maintained as described above. ATXN3/Q75 Aggregation Assay
Then, doxycycline (10 μg/mL, BD) was added to the medium in each well to induce ATXN3/Q75-GFP expression for 6 days.
In the present example, the influences of the P. lactiflora extract and paeoniflorin in the ATXN3/Q75-GFP cells were respectively examined.

in vitro [2] = settings: human
Procedure: (§2) Cells were cultivated at 37° C. incubator containing 5% CO2 and cell proliferation was measured based upon the reduction of the tetrazolium salt, 3,[4,5-dimethylthiazol-2-yl]-2,5-diphenyl-tetrazolium bromide (MTT). Cells were plated into 48-well (5×10^4/well) dishes, grown for 20 hours and treated with different concentrations of the P. lactiflora extract (5˜30 mg/mL) or pure compound (100 nM˜1 mM). After one day, 20 μL MTT (5 mg/mL in PBS, Sigma) was added to cells and incubated for 2 hours. The absorbance of the purple formazan dye was measured at 570 nm by a Bio-Tek μQuant Universal Microplate Spectrophotometer.

in vitro [3] = settings: human; remark: listed apart in the source
Procedure: as §2

[4] = system: ATXN3/Q75 aggregation in SH-SY5Y ATXN3/Q75-GFP cells; assay: ATXN3/Q75 aggregation assay on SH-SY5Y cell model; format: cell-based, human; settings: paeoniflorin 100 nM; retinoic acid differentiated SH-SY5Y ATXN3/Q75-GFP cells, 6 days
Procedure: as §1

Procedure for HEK-293 cells: as §2
Procedure for SH-SY5Y cells: as §2

| Compound | ATXN3/Q75 aggregation as compared to untreated cells ([1]; at 100 nM) [%] | pIC50 (SH-SY5Y cells) | ATXN3/Q75 aggregation as compared to untreated cells ([1]; at 5 μM) [%] | IC50 cytotoxicity/effective dose ratio [1] | pIC50 (HEK-293 cells) | IC50 at 24 h (in vitro [2]) [µM] | IC50 at 24 h (in vitro [3]) [µM] | aggregation reduction in ATXN3/Q75 expressed neuronal cells [4] [%] |
| --- | --- | --- | --- | --- | --- | --- | --- | --- |
| O=C(CCCCCCC(=O)Nc1ccccc1)NO [SAHA, suberoylanilide hydroxamic acid, reference compound] | 85 | – | – | – | – | – | – | – |
| C[C@]12C[C@@H](O)[C@@H]3C[C@@]1(O[C@@H]1O[C@H](CO)[C@@H](O)[C@H](O)[C@H]1O)[C@@]3(COC(=O)c1ccccc1)C(=O)O2 [albiflorin] | – | < 3.00 | 78 | > 200 | < 3.00 | – | – | – |
| C[C@@]12C[C@@]3(O)O[C@@H](O1)[C@]1(COC(=O)c4ccccc4)[C@H]3C[C@@]12O[C@@H]1O[C@H](CO)[C@@H](O)[C@H](O)[C@H]1O [paeoniflorin] | 73 | – | – | > 10000 | – | > 1000 | > 1000 | 21 |
